“Also recorded” adds a separate entry of the source.
Columns and labels:
[1] = test system: EMT6/CTX mouse breast cancer cell line; experiment: EMT6/CTX subcutaneous tumor growth in mice (tumor volume); format: in vivo
Description: Breast cancer is a highly lethal disease. To test the efficacy of rofecoxib, benzyl benzoate, cyclophosphamide, and pamidronate alone and in combination, a mouse breast cancer cell line, EMT6, that was originally isolated from a spontaneous tumor in a BALB/c mouse was used (Twentyman P R and Watson J V, Br. J. Cancer 35: 120 (1977)). This line was further selected for a drug resistant variant, EMT6/CTX, that was used in this study (Teicher B A et al. Cancer Chemother. Pharmacol. 37: 601 (1996)). An EMT6/CTX cell suspension was freshly prepared in DMEM medium+10% FCS, following trypsinization of cell grown in tissue culture. Anesthesia is performed by injecting 0.08 ml per mouse of Ketamine 30 mg/ml+0.07% Chanazine in PBS.
Rofecoxib (Vioxx, a Merck & Co. Inc. product), as an oral suspension. Diclofenac, water-soluble Vitamin K3 (menadione sodium bisulfite) and Benzyl benzoate, purchased from Sigma-Aldrich (St. Louise, […].), were formulated into solution in double-distilled water plus 2% Tween 20 (J.T. Baker, NJ). Cyclophosphamide, purchased from Bristol-Meyers Squibb (Princeton, N.J.), was formulated into solution in double-distilled water plus 2% Tween 20. Pamidronate (Pamidronic acid) was dissolved in 2M HEPES. The following doses were used for treatment in all three experiments: Rofecoxib 10 mg/kg, pamidronate 10 mg/kg, Diclofenac 30 or 60 mg/kg, menadione sodium bisulfite 20 or 50 mg/kg, cyclophosphamide (CTX) 50, 60 or 100 mg/kg and benzyl benzoate 80 or 550 mg/kg. Vehicle: 2% Tween 20 in double distilled water. The preparations were made in a concentration that will require an i.p. injection of 0.1 ml per 20 gr body weight to achieve the above doses.
All treatments were started 5 days after cell inoculation. Treatment comprised an intraperitoneal injection of 0.1 ml per 20 gr body weight of the formulation. Mice were treated twice a week for a period of 3 weeks.
Tumor dimensions were measured twice a week. Tumor volume was calculated according to conventional methods (volume=a^2×b×0.52 where a represents the tumor width and b is its length) and the data are represented as changes in tumor volume with time. Toxicity was evaluated by qualitative observation of the general appearance and behavior of the mice, by measuring their body weight during various intervals during the course of the treatments and by obtaining mortality data.

tumor-bearing mice = experiment: Own studies with tumor-bearing mice, agent given by itself; format: in vivo
cancer = conditions: Tetef M. et al. J. Cancer Res. Clin. Oncol. 121: 103-6 (1995); cited from earlier work

Compound: O=C(OCc1ccccc1)c1ccccc1 [A, Benzyl benzoate]
- tumor volume, comparison of regimen ([1]; Experiment 4, FIG. 4, (CTX 50+BC)x2 per week+1/6A x6 per week vs CTX 50+ABC twice a week, 4 weeks): superiority of spreading the dose of A throughout the week

Compound: CS(=O)(=O)c1ccc(C2=C(c3ccccc3)C(=O)OC2)cc1 [Rofecoxib]
- anti-cancer effect (tumor-bearing mice): no significant anti-cancer effect

Compound: O=C(O)Cc1ccccc1Nc1c(Cl)cccc1Cl [D, Diclofenac]
- tumor volume, comparison of NSAID ([1]; Experiment 6, FIG. 6, NSAID Wed. with or without B, CTX 100 Sun., A all week, 4 weeks): superiority of D (25 and 50 mg/kg) over C (5 and 10 mg/kg, respectively)

Compound: O=P1(N(CCCl)CCCl)NCCCO1 (stereo not shown) [CTX 50, Cyclophosphamide]
- effect on tumor growth ([1]; Experiment 3, FIG. 3, i.p. twice a week for 4 weeks, start 3 days after inoculation): moderate effect on tumor growth
- tumor volume, comparison of regimen ([1]; Experiment 7, FIG. 7, CTX 100 Sun. or CTX20 all week, D50 1, 3 or 5 days apart, A all week, 4 weeks): preferred over equal small doses throughout the week

Compound: CC1=CC(=O)c2ccccc2C1=O [VK, 2-methyl-1,4-naphthalenedione]
- tumor volume, effect of addition of Vitamin K3 ([1]; Experiment 8, FIG. 8, VK 20 mg/kg 6 times a week or 50 mg/kg twice a week added to CTX60+D30+A, 4 weeks): improve the efficacy of the treatment; also recorded: lower doses throughout the week (every day) is preferable
- activity as an anti-cancer agent (cancer): failed to show any activity

— patent publication US20050148521A1, “Anti-cancer combination and use thereof” (Yissum Research Development Company of the Hebrew University, priority 2002, published 2005)
